Consider 1 compound from EPA's ToxValDB 9.5 (doi:10.2903/j.efsa.2016.4421).

One data set relates to Hypoaspis aculeifer. The note with it: chronic/long-term; reproduction.
The next data set has as its system Lepomis macrochirus. The note with it: acute; duration: 96 hours; mortality.
The next data set relates to Folsomia candida. The note with it: chronic/long-term; reproduction.
A further data set relates to Apis mellifera. The note with it: acute, mortality.
The next data set relates to Anas platyrhynchos. To be noted: acute; oral; unspecified; mortality.
For another data set, the system named is Daphnia magna. To be noted: chronic/long-term; duration: 21 days; growth.
The subject of a further data set is Oryctolagus sp. The note with it: reproduction developmental.
The subject of a further data set is Oncorhynchus mykiss. To be noted: acute; duration: 96 hours; mortality.
A further data set relates to Aphidius rhopalosiphi. The data set can be described thus: LR50; higher = less toxic. The note with it: not reported, mortality.

As for `COc1cc(OC)nc(NC(=O)NS(=O)(=O)c2cc(NC=O)ccc2C(=O)N(C)C)n1` [Foramsulfuron], the NOEC stood at 1000 mg/kg in the data set with Hypoaspis aculeifer, 100 mg/kg with Folsomia candida and 100 mg/L in the data set on Daphnia magna. For the same compound, the LC50 with Lepomis macrochirus and in the data set on Oncorhynchus mykiss was above 100 µg/mL each time. The LD50 with Rattus norvegicus (acute, oral, mortality) was above 5000 mg/kg; in the data set on Apis mellifera (dermal), above 4.66 µg/piece; with Apis mellifera (duration: 48 hours, oral, unspecified), above 5 µg/piece; in the data set with Anas platyrhynchos it was above 2000 mg/kg; in the data set with Colinus virginianus (acute, oral, mortality), above 2000 mg/kg. Moreover, the NOEL stood at 1430 mg/kg-day in the data set on Rattus norvegicus (reproduction developmental, F, reproduction); 104 mg/kg-day in the data set on Colinus virginianus (reproduction developmental); 500 mg/kg-day in the data set on Oryctolagus sp. (no effects). The NOAEL in the data set with Rattus norvegicus (reproduction developmental, duration: 2 years, reproduction) worked out at 25 mg/kg-day; in the data set on Oryctolagus sp. (body weight), 50 mg/kg-day. The LR50 is above 60 g/ha in the data set on Aphidius rhopalosiphi (duration: 7 days) and above 5.6 g/ha in the data set with Aphidius rhopalosiphi.
